The subject of this series is diamondback moth (Plutella xylostella). The series can be described thus: Test Example 1: cabbage seedling spray test against diamondback moth larvae. Type of series: in vivo. The note with it: 500 ppm diluted solution sprayed on cabbage seedling, 20 mL/seedling; five second instar larvae; 25° C. for 5 days. As for the experimental part: Thirty-five (35) parts of a mixture of polyoxyethylene alkyl ether sulfate ammonium salt and wet silica (weight ratio of 1:1), 20 parts of the compound A, and 45 parts of water were mixed thoroughly. The resulting mixture was diluted with water containing 0.03 v/v % of Shindain (registered trademark) to prepare a diluted solution containing 500 ppm of the compound A. The diluted solution was sprayed into the cabbage (Brassicae oleracea) seedling (on the developmental stage of the second to third true leaf) that is planted in a container in a ratio of 20 mL/seedling.
Thereafter, the stem and leaf of thereof was cut out and then was installed into the container that was covered with the filter paper. Five second instar larvae of diamondback moth (Plutella xylostella) were released into the container, and the container was allowed to stand at 25° C. for 5 days. Thereafter, the surviving insects were counted, and the mortality was calculated from the following equation, and as a result, the mortality was 100%. Mortality (%)=(1−Number of the surviving insects/5)×100
The test was carried out according to Test Example 1 using the compound B instead of the compound A. As a result, the mortality was 0%.

In turn, `COC(=O)COC(=O)COc1ncccc1Oc1cc(-n2c(=O)cc(C(F)(F)F)n(C)c2=O)c(F)cc1Cl` [Compound B] yielded a Mortality of 0%.
With `CCOC(=O)COC(=O)COc1ncccc1Oc1cc(-n2c(=O)cc(C(F)(F)F)n(C)c2=O)c(F)cc1Cl` [Compound A] the figure was 100%.

The values above are taken from US12022833B2, “Uracil compound and composition for controlling harmful arthropods comprising the same” (Sumitomo Chemical Company, Limited, priority 2018, dated 2024).
